# Measurements from ChEMBL document CHEMBL4138088, “Novel 1-(7-ethoxy-1-benzofuran-2-yl) substituted chalcone derivatives: Synthesis, characterization and anticancer activity” (Eur J Med Chem, 2017).
# Active and inactive are the calls of the source. No cut-off for these calls is given here.
# What was measured:
# Assay type in all cases: functional, cell-based
# MCF7 [1] = assay: Growth inhibition of human MCF7 cells at 20 uM after 72 hrs by ATP bioluminescence assay
# MCF7 [2] = assay: Growth inhibition of human MCF7 cells at 20 uM after 72 hrs by SRB assay
# PC-3 [3] = assay: Growth inhibition of human PC3 cells at 20 uM after 72 hrs by SRB assay
# PC-3 [4] = assay: Growth inhibition of human PC3 cells at 20 uM after 72 hrs by ATP bioluminescence assay
Structure (SMILES),growth inhibition (GI) (MCF7 [1]),growth inhibition (GI) (MCF7 [2]),growth inhibition (GI) (PC-3 [3]),growth inhibition (GI) (PC-3 [4])
CCOc1cccc2cc(C(=O)/C=C/c3ccco3)oc12,Active,Active,,
CCOc1cccc2cc(C(=O)/C=C/c3ccc(C)cc3)oc12,Active,Active,,
CCOc1cccc2cc(C(=O)/C=C/c3cc(OC)c(OC)cc3OC)oc12,Active,Active,Active,Active
CCOc1cccc2cc(C(=O)/C=C/c3ccc(OC)cc3)oc12,Active,Active,,
CCOc1cccc2cc(C(=O)/C=C/c3ccc[nH]3)oc12,Active,Active,,
